This is an account of results in US6030951A, “Chrysomycin derivative compounds and use as antitumor agents” (Mercian Corporation, priority 1996, dated 2000).

In one series the test system is K562 (leukemic cell). The series is described as follows: Inhibition of growth of human cancer cells (WST-1, 3 days). In kind it is cell-based. Particulars: read-out: IC50 value. On the procedure:
(§1) Using various human cancer cells, the concentrations of test compounds which inhibits the growth of cancer cells by 50% were determined. Specifically, each of K562 (leukemic cell), HT29 (colic cancer), HT1080 (reticulogranuloma cell), MCF7 (mammary cancer cell), PC6 (pulmonary cancer cell) and MKN28 (gastric cancer cell) was added to a 96-well microtiter/plate at a density of 2-5×10^3 cells per well, and RPM11640 medium (phenol red-free) containing 10% FBS, together with a test compound, was added thereto. Then, this plate was incubated at 37° C. for 3 days in an atmosphere of air containing 5% CO2. Thereafter, 10 μl of WST-1 reagent [0.065% 2-(4-iodophenyl)-3-(4-nitrophenyl)-5-(2,4-disulfonyl)-2H-tetrazolium monosodium salt, 0.007% 1-methoxy-5-methylphenazium methylsulfate] was added to each well, and the plate was further incubated for 3 hours. Then, the absorbance of each well at 450 nm (with a reference wavelength of 650 nm) was measured with a plate reader.
Background: Formazan colour is commonly taken as a measure of viable cells.

The next series relates to HT29 (colic cancer). The description is as above. In kind it is cell-based. The note with it: HT-29, 72 h, read-out: IC50 value. How it is done: as §1
The test system of series [1] is PC6 (pulmonary cancer cell). Described as above. In kind it is cell-based. Particulars: 72 h, read-out: IC50 value. How it is done: as §1
Series [2] deals with MCF7 (mammary cancer cell). The series is described as above. In kind it is cell-based. Particulars: read-out: IC50 value. How it is done: as §1
Series [3] deals with MKN28 (gastric cancer cell). The series is described as above. In kind it is cell-based. The note with it: MKN-28, 72 h, read-out: IC50 value. On the procedure: as §1
Another series relates to solid cancer cells. Briefly: Growth-inhibiting activity against cultured solid cancer cells. Particulars: for effectiveness against cells derived from tumors, particularly solid cancers: colic, mammary, pulmonary and gastric cancer, mammals, in particular human. In kind it is cell-based, human. How it is done:
as §1

A further series relates to tumor cells. The series is described as follows: Growth-inhibiting activity against various types of tumor cells. The note with it: as compared with chrysomycins. In kind it is cell-based, human. On the procedure: as §1
Setting [4] is: organic solvents such as chloroform, acetone and methanol.

Each structure is given as a SMILES string. Converted amounts (≈) assume the structure as drawn. Read-outs that look alike come from different tables or passages of the source.

Turning to `C=Cc1cc(OC)c2c(c1)c(=O)oc1c2cc(OC)c2c(O)ccc(C3OC(C)C(O)C(C)(O)C3O)c21` (stereo not drawn) [Chrysomycin A, reference compound], the IC50 (commonly the concentration at which inhibition is half-maximal) came to 0.106 µg/mL (≈ 0.208 µM) in the series on K562 (leukemic cell) (K562, 72 h); 0.84 µg/mL (≈ 1.65 µM) with HT29 (colic cancer); 0.335 µg/mL (≈ 0.659 µM) in series [1]; 0.53 µg/mL (≈ 1.04 µM) in series [2] (MCF7, 72 h); 0.144 µg/mL (≈ 0.283 µM) in series [3].
With `COc1cc2c(oc(=O)c3cc(C)cc(OC)c32)c2c(C3OC(C)C(O)C(C)(O)C3O)ccc(O)c12` (stereo not drawn) [Chrysomycin B, reference compound], the IC50 was determined as 1.76 µg/mL (≈ 3.54 µM) with K562 (leukemic cell) (72 h, K562, 3 days, 37° C.); 2.63 µg/mL (≈ 5.3 µM) in the series with HT29 (colic cancer) (HT29, 3 days, 37° C.); 3.5 µg/mL (≈ 7.05 µM) in series [1] (PC6, 3 days, 37° C.); 2.58 µg/mL (≈ 5.2 µM) in series [2] (72 h, MCF7, 3 days, 37° C.); 2.65 µg/mL (≈ 5.34 µM) in series [3] (MKN28, 3 days, 37° C.).
In the case of `COc1cc2c(oc(=O)c3cc(C)cc(OC)c32)c2c(C3OC(C)C(O)(C(C)=O)C3O)ccc(O)c12` (stereo not drawn) [Mer-1020dA], the results for the Solubility entry in “Solubility” (setting [4]) and in “Solubility” (water) were “Soluble” and “insoluble”, respectively. Also, the IC50 stood at 0.36 µg/mL (≈ 0.728 µM) in the series on K562 (leukemic cell) (72 h, K562, 3 days, 37° C.); 0.075 µg/mL (≈ 0.152 µM) in the series on HT29 (colic cancer) (HT29, 3 days, 37° C.); 0.064 µg/mL (≈ 0.129 µM) in series [1] (PC6, 3 days, 37° C.); 0.032 µg/mL (≈ 0.0647 µM) in series [2] (72 h, MCF7, 3 days, 37° C.); 0.017 µg/mL (≈ 0.0344 µM) in series [3] (MKN28, 3 days, 37° C.). Besides, the “growth-inhibiting activity against all types of cultured solid cancers used for testing” value with solid cancer cells (all types tested) was “significantly excellent growth-inhibiting activity”. Also, in the series with solid cancer cells, the “effectiveness against cells derived from tumors, particularly solid cancers” value (“effectiveness against cells derived” for short) was “remarkable effectiveness”.
With `COc1cc2c(oc(=O)c3cc(C)cc(OC)c32)c2c(C3OC(C)C(=O)C(C)(O)C3O)ccc(O)c12` (stereo not drawn) [Mer-1020dB], the Solubility entry in the series “Solubility” (setting [4]) is given as “Soluble”; in “Solubility” (water), “insoluble”. The IC50 in the series with K562 (leukemic cell) (72 h, K562, 3 days, 37° C.) amounted to 0.28 µg/mL (≈ 0.566 µM); with HT29 (colic cancer) (HT29, 3 days, 37° C.) it was 0.35 µg/mL (≈ 0.708 µM); in series [1] (PC6, 3 days, 37° C.), 0.11 µg/mL (≈ 0.222 µM); in series [2] (72 h, MCF7, 3 days, 37° C.), 0.35 µg/mL (≈ 0.708 µM); in series [3] (MKN28, 3 days, 37° C.) it was 0.35 µg/mL (≈ 0.708 µM). Besides, the “effectiveness against cells derived” value in the series on solid cancer cells was “remarkable effectiveness”.
Turning to `C=Cc1cc(OC)c2c(c1)c(=O)oc1c2cc(OC)c2c(O)ccc(C3OC(C)C(=O)C(C)(O)C3O)c21` (stereo not drawn) [Mer-1020dC], the figures for the Solubility result in the series “Solubility” (setting [4]) and in the series “Solubility” (water) were “Soluble” and “insoluble”, respectively. For the same compound, the IC50 with K562 (leukemic cell) (72 h, K562, 3 days, 37° C.) amounted to 0.11 µg/mL (≈ 0.217 µM); in the series with HT29 (colic cancer) (HT29, 3 days, 37° C.), 0.1 µg/mL (≈ 0.197 µM); in series [1] (PC6, 3 days, 37° C.), 0.03 µg/mL (≈ 0.0592 µM); in series [2] (72 h, MCF7, 3 days, 37° C.), 0.42 µg/mL (≈ 0.829 µM); in series [3] (MKN28, 3 days, 37° C.) it was 0.32 µg/mL (≈ 0.632 µM). Also, the “effectiveness against cells derived” value with solid cancer cells is “remarkable effectiveness”.
For the compound `C=Cc1cc(OC)c2c(c1)c(=O)oc1c2cc(OC)c2c(O)ccc(C3OC(C)C(O)(C(C)=O)C3O)c21` (stereo not drawn) [Mer-1020dD], the Solubility result in the series “Solubility” (setting [4]) is recorded as “Soluble”; in “Solubility” (water) it was “insoluble”. Further, the IC50 is 0.21 µg/mL (≈ 0.415 µM) in the series on K562 (leukemic cell) (72 h, K562, 3 days, 37° C.); 0.15 µg/mL (≈ 0.296 µM) in the series on HT29 (colic cancer) (HT29, 3 days, 37° C.); 2.5 µg/mL (≈ 4.94 µM) in series [1] (PC6, 3 days, 37° C.); 0.6 µg/mL (≈ 1.18 µM) in series [2] (72 h, MCF7, 3 days, 37° C.); 1 µg/mL (≈ 1.97 µM) in series [3] (MKN28, 3 days, 37° C.). The “effectiveness against cells derived” value with solid cancer cells is reported as “remarkable effectiveness”.
On to `COc1cc2c(oc(=O)c3cc(C)cc(OC)c32)c2cccc(O)c12` [Mer-1020dE], for which the Solubility result in “Solubility” (setting [4]) is “Soluble”; in “Solubility” (water) it was “insoluble”. In addition, the IC50 was found to be 8.1 µg/mL (≈ 24.1 µM) in the series on K562 (leukemic cell) (72 h, K562, 3 days, 37° C.); 19 µg/mL (≈ 56.5 µM) with HT29 (colic cancer) (HT29, 3 days, 37° C.); 34 µg/mL (≈ 101 µM) in series [1] (PC6, 3 days, 37° C.); 17 µg/mL (≈ 50.5 µM) in series [2] (72 h, MCF7, 3 days, 37° C.); 11 µg/mL (≈ 32.7 µM) in series [3] (MKN28, 3 days, 37° C.). Further, in the series on tumor cells, the “growth-inhibiting activity against various types of tumor cells” value is on record as “lower as compared with chrysomycins”.
